melting point: 270 to 271 °C (dec.)
SMILES: Cc1c(Br)cc(C(C)(C)C)c(O)c1C1=Nc2cc(Cl)ccc2S(=O)(=O)N1 [Example 1, 4-Bromo-6-tert-butyl-2-(6-chloro-1,1-dioxo-1,2-dihydro-1λ^6-benzo[1,2,4]thiadiazin-3-yl)-3-methylphenol]

Reference: US8022066B2, “2-(2-hydroxyphenyl) benzothiadiazines useful for treating obesity and diabetes” (High Point Pharmaceuticals, LLC, priority 2006, dated 2011)
